Target: T1, Human TREX1 enzyme (amino acids 1-242) (Homo sapiens, UniProt Q9NSU2)
T1 construct: Human TREX1 enzyme (amino acids 1-242)
T1 sequence (Q9NSU2 1-242): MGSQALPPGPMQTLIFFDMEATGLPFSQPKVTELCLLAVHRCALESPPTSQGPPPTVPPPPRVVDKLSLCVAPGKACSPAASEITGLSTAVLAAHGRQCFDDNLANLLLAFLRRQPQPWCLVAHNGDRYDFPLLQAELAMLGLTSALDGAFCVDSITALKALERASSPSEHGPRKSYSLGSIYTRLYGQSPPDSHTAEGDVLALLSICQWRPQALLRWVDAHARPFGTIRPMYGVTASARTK
Assay: Human TREX1 enzymatic assay with dsDNA native oligonucleotide (Picogreen fluorescence)
Assay type: biochemical
Details: 2 mM dithiothreitol in assay buffer; 50 nM dsDNA oligonucleotide; 30 min preincubation at 25° C.; read-out: TREX1/Human + DTT IC50 AVG
How it was run: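 Remaining dsDNA quantified by Picogreen fluorescence after EDTA quench, with no-enzyme and DMSO wells as controls. Reactions used 50 nM annealed oligonucleotide for 5–15 min at 25 °C, after a 30 min compound–enzyme preincubation (0.8–0.16 nM TREX1; 2% DMSO; pH 7.7 Tris, 5 mM MgCl2).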

| Compound | IC50 |
| --- | --- |
| CNC(=O)c1ccc2nc(-c3cc(OC)c(O)c(O)c3C)n(C3(C)COC3)c2c1 [Example 213, 2-(3,4-dihydroxy-5-methoxy-2-methylphenyl)-N-methyl-1-(3-methyloxetan-3-yl)-1H-1,3-benzodiazole-6-carboxamide] | ≤ 100 nM |
| CNC(=O)c1cccc2c1nc(-c1cc(OC)c(O)c(O)c1F)n2C1(C)COC1 [Example 214, 2-(2-fluoro-3,4-dihydroxy-5-methoxyphenyl)-N-methyl-1-(3-methyloxetan-3-yl)-1H-1,3-benzodiazole-4-carboxamide] | 100 to 1000 nM |
| CCCC(=O)Nc1ccc2c(c1)nc(-c1cc(OC)c(O)c(O)c1F)n2C1(C)COC1 [Example 215, N-(2-(2-fluoro-3,4-dihydroxy-5-methoxyphenyl)-1-(3-methyloxetan-3-yl)-1H-benzo[d]imidazol-5-yl)butyramide] | ≤ 100 nM |
| COc1cc(-c2nc3ccccc3n2C2(C)COC2)c(C#N)c(O)c1O [Example 216, 2,3-dihydroxy-4-methoxy-6-[1-(3-methyloxetan-3-yl)-1H-1,3-benzodiazol-2-yl]benzonitrile] | 10000 to 100000 nM |
| COc1cc(-c2nc3ccccc3n2C2(C)COC2)c(OC(F)F)c(O)c1O [Example 217, 3-(difluoromethoxy)-6-methoxy-4-(1-(3-methyloxetan-3-yl)-1H-benzo[d]imidazol-2-yl)benzene-1,2-diol] | 10000 to 100000 nM |
| CCc1cc2nc(-c3cc(OC)c(O)c(O)c3F)n(C3(C)COC3)c2cn1 [Example 218, 4-[6-ethyl-3-(3-methyloxetan-3-yl)-3H-imidazo[4,5-c]pyridin-2-yl]-3-fluoro-6-methoxybenzene-1,2-diol] | ≤ 100 nM |
| COc1cc(-c2nc3cc(C(N)=O)ncc3n2C2(C)COC2)c(F)c(O)c1O [Example 219, 2-(2-fluoro-3,4-dihydroxy-5-methoxyphenyl)-3-(3-methyloxetan-3-yl)-3H-imidazo[4,5-c]pyridine-6-carboxamide] | 100 to 1000 nM |
| COc1cc(-c2cc3ccccc3n2C2(C)COC2)c(C)c(O)c1O [Example 220] | 100 to 1000 nM |
| COc1cc(-c2nc3cc(N4CCC4)ccc3n2C)c(C(F)(F)F)c(O)c1O [Example 221, 4-(5-(azetidin-1-yl)-1-methyl-1H-benzo[d]imidazol-2-yl)-6-methoxy-3-(trifluoromethyl)benzene-1,2-diol] | 1000 to 10000 nM |
| COc1cc(-c2nc3cc(NCc4ccccc4)ccc3n2C2(C)COC2)c(F)c(O)c1O [Example 222, 4-(5-(benzylamino)-1-(3-methyloxetan-3-yl)-1H-benzo[d]imidazol-2-yl)-3-fluoro-6-methoxybenzene-1,2-diol] | ≤ 100 nM |
| CCNc1ccc2c(c1)nc(-c1cc(OC)c(O)c(O)c1F)n2C1(C)COC1 [Example 223, 4-(5-(ethylamino)-1-(3-methyloxetan-3-yl)-1H-benzo[d]imidazol-2-yl)-3-fluoro-6-methoxybenzene-1,2-diol] | 100 to 1000 nM |
| COc1cc(-c2nc3cc(NC(=O)CCO)ccc3n2C2(C)COC2)c(F)c(O)c1O [Example 224, N-(2-(2-fluoro-3,4-dihydroxy-5-methoxyphenyl)-1-(3-methyloxetan-3-yl)-1H-benzo[d]imidazol-5-yl)-3-hydroxypropanamide] | ≤ 100 nM |
| COc1cc(-c2nc3ccccc3n2C2(C)CCC2)c(C)c(O)c1O [Example 225, 6-methoxy-3-methyl-4-(1-(1-methylcyclobutyl)-1H-benzo[d]imidazol-2-yl)benzene-1,2-diol] | 1000 to 10000 nM |
| COc1cc(-c2nc3ccccc3n2C(C)C)c(C)c(O)c1O [Example 226, 4-(1-isopropyl-1H-benzo[d]imidazol-2-yl)-6-methoxy-3-methylbenzene-1,2-diol] | 1000 to 10000 nM |
| COc1cc(-c2nc3ccccc3n2C(C)(C)C)c(C)c(O)c1O [Example 227, 4-(1-(tert-butyl)-1H-benzo[d]imidazol-2-yl)-6-methoxy-3-methylbenzene-1,2-diol] | 100 to 1000 nM |
| COc1cc(-c2nc3ccc(S(=O)(=O)N(C)C)cc3n2C2(C)COC2)c(F)c(O)c1O [Example 228, 2-(2-fluoro-3,4-dihydroxy-5-methoxyphenyl)-N,N-dimethyl-1-(3-methyloxetan-3-yl)-1H-benzo[d]imidazole-6-sulfonamide] | 10000 to 100000 nM |
| COc1cc(-c2nc3cnccc3n2C2(C)COC2)c(F)c(O)c1O [Example 229, 3-fluoro-6-methoxy-4-(1-(3-methyloxetan-3-yl)-1H-imidazo[4,5-c]pyridin-2-yl)benzene-1,2-diol] | 1000 to 10000 nM |
| COc1cc(-c2nc3ccncc3n2C2(C)COC2)c(F)c(O)c1O [Example 230, 3-fluoro-6-methoxy-4-[3(3-methyloxetan-3-yl)-3H-imidazo[4,5-c]pyridin-2-yl]benzene-1,2-diol] | 100 to 1000 nM |

| Compound | IC50 |
| --- | --- |
| COc1cc(-c2nc3cc(F)ccc3[nH]2)c(F)c(O)c1O [Example 231, 3-fluoro-4-(5-fluoro-1H-benzo[d]imidazol-2-yl)-6-methoxybenzene-1,2-diol] | > 100000 nM |
| COc1cc(-c2nc3ccccc3n2C2(C)COC2)c(F)c(O)c1O [Example 232, 3-fluoro-6-methoxy-4-(1-(3-methyloxetan-3-yl)-1H-benzo[d]imidazol-2-yl)benzene-1,2-diol] | 100 to 1000 nM |
| Oc1cc(-c2nc3ccccc3n2C2CCC2)cc(OC(F)(F)F)c1O [Example 233, 5-(1-cyclobutyl-1H-benzo[d]imidazol-2-yl)-3-(trifluoromethoxy)benzene-1,2-diol] | > 100000 nM |
| CCOc1cc(-c2nc3ccccc3n2C2CCC2)cc(O)c1O [Example 234, 5-(1-cyclobutyl-1H-1,3-benzodiazol-2-yl)-3-ethoxybenzene-1,2-diol] | 1000 to 10000 nM |
| COc1cc(-c2nc3cc(N)ccc3n2C2CCC2)c(C)c(O)c1O [Example 235, 4-(5-amino-1-cyclobutyl-1H-benzo[d]imidazol-2-yl)-6-methoxy-3-methylbenzene-1,2-diol] | 100 to 1000 nM |
| COc1cc(-c2nc3ccc(CNc4ccccc4)cc3n2C2(C)COC2)c(F)c(O)c1O [Example 236, 3-fluoro-6-methoxy-4-(1-(3-methyloxetan-3-yl)-6-((phenylamino)methyl)-1H-benzo[d]imidazol-2-yl)benzene-1,2-diol] | 100 to 1000 nM |
| COc1cc(-c2nc3cc(NC(C)=O)ncc3n2C2(C)COC2)c(F)c(O)c1O [Example 237, N-(2-(2-fluoro-3,4-dihydroxy-5-methoxyphenyl)-3-(3-methyloxetan-3-yl)-3H-imidazo[4,5-c]pyridin-6-yl)acetamide] | ≤ 100 nM |
| COc1cc(-c2nc3ccc(-c4nnco4)cc3n2C2(C)COC2)c(F)c(O)c1O [Example 238, 3-fluoro-6-methoxy-4-[1-(3-methyloxetan-3-yl)-6-(1,3,4-oxadiazol-2-yl)-1H-1,3-benzodiazol-2-yl] benzene-1,2-diol] | ≤ 100 nM |
| COc1cc(-c2nc3ccccc3n2CC2CCC2)c(C)c(O)c1O [Example 239, 4-(1-(cyclobutylmethyl)-1H-benzo[d]imidazol-2-yl)-6-methoxy-3-methylbenzene-1,2-diol] | > 100000 nM |
| COc1cc(-c2nc3cc(N4CCC4)ccc3[nH]2)c(C2CC2)c(O)c1O [Example 242, 4-(5-(azetidin-1-yl)-1H-benzo[d]imidazol-2-yl)-3-cyclopropyl-6-methoxybenzene-1,2-diol] | > 100000 nM |
| COc1cc(-c2nc3ccc(C(=O)NC(C)(C)C)cc3n2C2(C)COC2)c(F)c(O)c1O [Example 243, N-tert-butyl-2-(2-fluoro-3,4-dihydroxy-5-methoxyphenyl)-1-(3-methyloxetan-3-yl)-1H-1,3-benzodiazole-6-carboxamide] | 100 to 1000 nM |
| COc1cc(-c2nc3ccc(C(=O)NCC(F)(F)F)cc3n2C2(C)COC2)c(F)c(O)c1O [Example 244, 2-(2-fluoro-3,4-dihydroxy-5-methoxyphenyl)-1-(3-methyloxetan-3-yl)-N-(2,2,2-trifluoroethyl)-1H-1,3-benzodiazole-6-carboxamide] | ≤ 100 nM |
| COc1cc(-c2nc3ccc(C(=O)N(C)C)cc3n2C2(C)COC2)c(F)c(O)c1O [Example 245, 2-(2-fluoro-3,4-dihydroxy-5-methoxyphenyl)-N,N-dimethyl-1-(3-methyloxetan-3-yl)-1H-benzo[d]imidazole-6-carboxamide] | 1000 to 10000 nM |
| COc1cc(-c2nc3ccc(C(=O)Nc4ccccc4)cc3n2C2(C)COC2)c(F)c(O)c1O [Example 246, 2-(2-fluoro-3,4-dihydroxy-5-methoxyphenyl)-1-(3-methyloxetan-3-yl)-N-phenyl-1H-benzo[d]imidazole-6-carboxamide] | ≤ 100 nM |
| COc1cc(-c2nc3ccc(C(=O)Nc4cnoc4)cc3n2C2(C)COC2)c(F)c(O)c1O [Example 247, 2-(2-fluoro-3,4-dihydroxy-5-methoxyphenyl)-N-(isoxazol-4-yl)-1-(3-methyloxetan-3-yl)-1H-benzo[d]imidazole-6-carboxamide] | ≤ 100 nM |
| COc1cc(-c2nc3ccc(C(=O)Nc4ccncc4)cc3n2C2(C)COC2)c(F)c(O)c1O [Example 248, 2-(2-fluoro-3,4-dihydroxy-5-methoxyphenyl)-1-(3-methyloxetan-3-yl)-N-(pyridin-4-yl)-1H-1,3-benzodiazole-6-carboxamide] | ≤ 100 nM |
| COc1cc(-c2nc3ccc(C(=O)NC45CC(C4)C5)cc3n2C2(C)COC2)c(F)c(O)c1O [Example 249, N-(bicyclo[1.1.1]pentan-1-yl)-2-(2-fluoro-3,4-dihydroxy-5-methoxyphenyl)-1-(3-methyloxetan-3-yl)-1H-benzo[d]imidazole-6-carboxamide] | ≤ 100 nM |

— patent publication US20230234943A1, “TREX1 INHIBITORS AND USES THEREOF” (Tempest Therapeutics, Inc., priority 2020, published 2023)
